# Laboratory results reported in ChEMBL document CHEMBL4325859, “Research advances on anticancer activities of matrine and its derivatives: An updated overview” (Eur J Med Chem, 2019).
# Columns and labels:
# [1] = tested on: A549; test: Antiproliferative activity against human A549 cells at 2 g/L after 48 hrs by MTT assay relative to control; type: functional
# [2] = tested on: MCF7; test: Antiproliferative activity against human MCF7 cells after 72 hrs relative to control; type: functional
# [3] = tested on: MCF7; test: Induction of apoptosis in human MCF7 cells at 0.25 to 2 mg/ml (reference value: 1.1 +/- 0.08%); type: functional
# [4] = tested on: Bel-7402; test: Antiproliferative activity against human Bel7402 cells after 48 hrs by MTT assay; type: functional, cell-based; details: Bel-7402, 48 h
# [5] = tested on: HepG2; test: Antiproliferative activity against human HepG2 cells at 1 mg/ml after 48 hrs relative to control; type: functional
# [6] = tested on: SMMC-7721; test: Antiproliferative activity against human SMMC7721 cells at 5 ug/ml after 72 hrs by MTT assay relative to control; type: functional
# [7] = tested on: SMMC-7721; test: Antiproliferative activity against human SMMC7721 cells at 100 ug/ml after 72 hrs by MTT assay relative to control; type: functional
# [8] = tested on: SMMC-7721; test: Antiproliferative activity against human SMMC7721 cells at 200 ug/ml after 72 hrs by MTT assay relative to control; type: functional
# [9] = tested on: SGC-7901; test: Induction of apoptosis in human SGC7901 cells at 30 mg/ml after 48 hrs by propidium iodide staining based flow cytometry (reference value: 3.54 +/- 0.47%); type: functional
# [10] = tested on: PC-3; test: Growth inhibition of human PC3 cells at 6 g/L after 72 hrs relative to control; type: functional; details: PC-3, 72 h, read-out: GI
# [11] = tested on: CCRF-CEM; test: Antiproliferative activity against human CCRF-CEM cells after 24 hrs by WST1 assay; type: functional, cell-based
# [12] = tested on: K562; test: Antiproliferative activity against human K562 cells after 72 hrs by MTT assay; type: functional, cell-based; details: K562, 72 h
# [13] = tested on: RPMI-8226; test: Growth inhibition of human RPMI8226 cells at 1000 mg/L after 48 hrs by MTT assay relative to control; type: functional; details: RPMI-8226, 48 h, read-out: GI
# [14] = tested on: RPMI-8226; test: Growth inhibition of human RPMI8226 cells at 1500 mg/L after 48 hrs by MTT assay relative to control; type: functional; details: RPMI-8226, 48 h, read-out: GI
# [15] = tested on: RPMI-8226; test: Induction of apoptosis in human RPMI8226 cells at 1000 mg/L after 48 hrs by Annexin V/propidium iodide staining based flow cytometry (reference value: 3.02 +/- 1.19%); type: functional
# [16] = tested on: MM1.S; test: Growth inhibition of human MM1S cells at […] after 24 hrs relative to control; type: functional; details: read-out: GI
# [17] = Growth inhibition of human MM1R cells at […] after 24 hrs relative to control; type: functional; details: MM.1R, read-out: GI
# [18] = tested on: RPMI-8226; test: Growth inhibition of human RPMI8226 cells after 24 hrs; type: functional, cell-based; details: RPMI-8226, 24 h
# [19] = tested on: RPMI-8226; test: Antiproliferative activity against human RPMI8226 cells after 24 hrs by MTT assay; type: functional, cell-based; details: RPMI-8226, 24 h
# [20] = tested on: 5637; test: Antiproliferative activity against human 5637 cells after 48 hrs by CCK8 assay; type: functional, cell-based; details: Homo sapiens, 5637, 48 h
# [21] = tested on: KYSE-150 cell line; test: Antiproliferative activity against human KYSE-150 cells assessed as cell viability at 3 mg/ml after 24 hrs by MTT assay relative to control; type: functional; details: KYSE-150, 24 h, read-out: Activity
# [22] = tested on: KYSE-150 cell line; test: Antiproliferative activity against human KYSE-150 cells after 24 hrs by MTT assay; type: functional, cell-based; details: KYSE-150, 24 h
# [23] = tested on: LoVo; test: Antiproliferative activity against human LoVo cells after 48 hrs by MTT assay; type: functional, cell-based
# [24] = tested on: HT-29; test: Growth inhibition of human HT-29 cells at 2 ml/L after 24 hrs by MTT assay relative to control; type: functional
# [25] = tested on: HT-29; test: Growth inhibition of human HT-29 cells at 4 ml/L after 24 hrs by MTT assay relative to control; type: functional
# [26] = tested on: HT-29; test: Growth inhibition of human HT-29 cells at 32 ml/L after 36 hrs by MTT assay relative to control; type: functional
# [27] = tested on: HT-29; test: Growth inhibition of human HT-29 cells at 8 ml/L after 48 hrs by MTT assay relative to control; type: functional
# [28] = tested on: HT-29; test: Growth inhibition of human HT-29 cells at 2 mg/ml by MTT assay relative to control; type: functional; details: read-out: GI
# [29] = tested on: HT-29; test: Synergistic growth inhibition of human HT-29 cells at 1 mg/ml cotreated with 5 ug/ml irinotecan by MTT assay relative to control; type: functional
# [30] = tested on: DLD-1; test: Growth inhibition of human DLD1 cells after 24 hrs by MTT assay; type: functional, cell-based; details: DLD-1, 24 h
# [31] = tested on: U2OS; test: Growth inhibition of human U2OS cells at 0.8 mg/ml after 48 hrs by MTT assay relative to control; type: functional; details: read-out: GI
# [32] = tested on: SAOS-2; test: Growth inhibition of human Saos2 cells at 0.8 mg/ml after 48 hrs by MTT assay relative to control; type: functional; details: SAOS-2, 48 h, read-out: GI
# [33] = tested on: UMR108; test: Growth inhibition of rat UMR108 cells assessed as cell proliferation at 0.5 mg/ml after 72 hrs by MTT assay (reference value: 0.403 +/- 0.009%); type: functional; details: UMR108, 72 h, read-out: Activity
# [34] = Growth inhibition of human GRC1 cells at 0.3 g/L after 24 hrs by MTT assay relative to control; type: functional; details: read-out: GI
# [35] = Growth inhibition of human GRC1 cells at 0.5 g/L after 24 hrs by MTT assay relative to control; type: functional; details: read-out: GI
# [36] = Growth inhibition of human GRC1 cells at 1.5 g/L after 24 hrs by MTT assay relative to control; type: functional; details: read-out: GI
# [37] = Growth inhibition of human GRC1 cells at 0.5 g/L after 72 hrs by MTT assay relative to control; type: functional; details: read-out: GI
# [38] = Growth inhibition of human GRC1 cells at 1.5 g/L after 72 hrs by MTT assay relative to control; type: functional; details: read-out: GI
# [39] = Growth inhibition of human GRC1 cells at 1 g/L after 96 hrs by MTT assay relative to control; type: functional; details: read-out: GI
# [40] = tested on: D341 cell line; test: Growth inhibition of human D341 cells at 1 mg/ml after 72 hrs by CCK8 assay relative to control; type: functional; details: D341, 72 h, read-out: GI
# [41] = tested on: D341 cell line; test: Growth inhibition of human D341 cells at 2 mg/ml after 48 hrs by CCK8 assay relative to control; type: functional; details: D341, 48 h, read-out: GI
# [42] = tested on: HeLa; test: Induction of apoptosis in human HeLa cells at 100 ug/ml after 48 hrs by Annexin V-FITC/propidium iodide staining based flow cytometry relative to control; type: functional
# [43] = tested on: C-33-A; test: Induction of apoptosis in human C33A cells at 100 ug/ml after 48 hrs by Annexin V-FITC/propidium iodide staining based flow cytometry relative to control; type: functional
# [44] = tested on: SiHa; test: Antiproliferative activity against human SiHa cells after 48 hrs by CCK8 assay; type: functional, cell-based
# [45] = tested on: HT-29; test: Antiproliferative activity against human HT-29 cells by MTT assay; type: functional, cell-based
# [46] = tested on: HepG2; test: Antiproliferative activity against human HepG2 cells by MTT assay; type: functional, cell-based
smiles,measurement,setting,value
O=C1CCC[C@@H]2[C@H]3CCCN4CCC[C@@H](CN12)[C@@H]34 [MATRINE],Activity,[1],20%
same,Activity,[2],10.86 - 70.23%
same,Activity,[3],4.17 - 19.63%
same,IC50,[4],3.22 mM
same,Activity,[5],48.39%
same,Activity,[6],3%
same,Activity,[7],55.1%
same,Activity,[8],77.4%
same,Activity,[9],12.89%
same,inhibition of growth at 6000 µg/mL,[10],90%
same,IC50,[11],11.7 mM
same,IC50,[12],1.77 mM
same,inhibition of growth at 1000 µg/mL,[13],30.4%
same,inhibition of growth at 1500 µg/mL,[14],39.4%
same,Activity,[15],18.48%
same,inhibition of growth at 2 g/mL,[16],73%
same,inhibition of growth at 2 g/mL,[17],74%
same,IC50,[18],4.35 mM
same,IC50,[19],2250 µg/mL
same,IC50,[20],4.48 mM
same,viability at 3000 µg/mL,[21],29.6%
same,IC50,[22],7.82 mM
same,IC50,[23],2.97 mM
same,growth inhibition (GI),[24],9.2%
same,growth inhibition (GI),[25],17.88%
same,growth inhibition (GI),[26],77.14%
same,growth inhibition (GI),[27],68.29%
same,inhibition of growth at 2000 µg/mL,[28],52.9%
same,growth inhibition (GI),[29],87.61%
same,IC50,[30],6.32 mM
same,inhibition of growth at 800 µg/mL,[31],10%
same,inhibition of growth at 800 µg/mL,[32],10%
same,growth at 500 µg/mL,[33],0.228%
same,inhibition of growth at 300 µg/mL,[34],6.3%
same,inhibition of growth at 500 µg/mL,[35],11.5%
same,inhibition of growth at 1500 µg/mL,[36],31.6%
same,inhibition of growth at 500 µg/mL,[37],21.9%
same,inhibition of growth at 1500 µg/mL,[38],34%
same,inhibition of growth at 1000 µg/mL,[39],45.8%
same,inhibition of growth at 1000 µg/mL,[40],28.3%
same,inhibition of growth at 2000 µg/mL,[41],47.2%
same,Activity,[42],38.41%
same,Activity,[43],28.91%
same,IC50,[44],5.76 mM
same,IC50,[45],0.0286 mM
same,IC50,[46],8.07 mM
